Consider 10 compounds from patent US5449676A, “Pyridazines” (priority 1991, dated 1995).

Experiment [1] deals with acetylcholine-induced bronchospasm. The experiment is described as follows: protective effect against acetylcholine-induced bronchospasm in conscious guinea pigs. The class given is in vivo. The note with it: Cavia porcellus, 0.5 h, oral, 30 minutes after administration, percentage of protected animals; for responders at 100 µmol/kg: 100 μmol/kg. As to the method:
In addition, the bronchospasmolytic effect was tested on the "protective effect against acetylcholine-induced bronchospasm in conscious guinea pigs" model:
Guinea pigs (250-350 g) are exposed in a closed Plexiglass cylinder (volume […] ) to an acetylcholine mist (0.06% in 0.9% sodium chloride solution; Heyer Use 77 ultrasonic atomizer) before administration of the substance and twice at an interval of 20 minutes after administration of the substance. The time from the start of atomization to the onset of marked breathing difficulties (in some cases hypoxic convulsion in the lateral position) is measured and called the latency time. An increase in the latency time after administration of the substance to at least three times the average latency time before administration of the substance is regarded as a protective effect, and the number of protected animals in the group is determined. […]
[…] After 30 minutes, the animals are again exposed to the acetylcholine mist and the latency times are measured. An increase in the latency time to at least three times the length is regarded as a protective effect.

The target of the next experiment is T1, PDE III (Homo sapiens, UniProt Q14432).
T1 construct: PDE III isolated from human platelets; from tissue; host or cells: human platelets
Nature of the experiment: inhibition of PDE III isolated from human platelets. In kind it is biochemical. The note with it: negative logarithm of IC50, cAMP 0.5 μmol/l; for IC50: read-out: PDE III hum. platelets -lg[IC50 ] (converted). From the text:
(§1) The specific inhibition of phosphodiesterase IV (PDE IV=high-affinity cAMP-PDE which cannot be inhibited by cGMP, rolipram-sensitive) is regarded as particularly indicative of an expected bronchospasmolytic and/or antiinflammatory effect. The specificity of the inhibition is moreover described by the ratio [IC50 ]PDE-III /[IC50 ]PDE-IV (PDE III=high-affinity cAMP-PDE which can be inhibited by cGMP) [H. Hidaka et al., Adv. Cycl. Nucl. Res. 13, 145 (1984); TiPS 5, 237 (1984); R. Weishaar et al., J. Med. Chem. 28, (1985); S. A. Harrison et al., Molec. Pharmac. 29, 506 (1986); J. Klein-Tebbe et al., Allergologie 12, 12 (1989); C. Schudt et al., Allergologie 12, 12, (1989); C. Schudt et al., Agents and Action 1991 in press; C. D. Nicholson et al., TiPS 12, (1), 19 (1991)].
(§2) For this reason, the PDE inhibition by the compounds according to the invention was determined on a PDE III isolated from human platelets and on PDE IV isolated from human polymorphonuclear neutrophilic cells (PMNs) and from the dog trachea. Phosphodiesterases III and IV are isolated by chromatography as described by Polson et al., Biochem. Pharmacol. 31, 3403-3406 (1982).
(§3) The substances are dissolved and diluted further in DMSO. 2.1 μl samples from a series of solutions diluted up to 100 fold are mixed with 212 μl of reaction mixture. The reaction mixture contains Hepes (100 mmol/l), DTE (5 mmol/l), MgCl2 (5 mmol/l), CaCl2 (10 μmol/l), BSA fraction V 0.5 mg, ml, cAMP 0.5 μmol/l, 2,8-^3 H-cAMP 250,000 cpm/ml (0.3 μCi/ml, S.A. […]), SV (snake venom) 25 μg/212 μl of test mixture.

Experiment [2] relates to PDE IV. Nature of the experiment: inhibition of PDE IV isolated from dog trachea. The class given is biochemical. The note with it: for PDE IV dog trachea -lg[IC50 ]: negative logarithm of IC50, cAMP 0.5 μmol/l; for [IC50 ] PDE III/[IC50 ] PDE IV dog tr.: selectivity ratio, PDE III hum. platelets vs PDE IV dog trachea.
Text: as §1, §2, §3

Experiment [3] has as its system histamine-induced bronchospasm. The experiment is described as follows: histamine-induced bronchospasm in anesthetized guinea pigs. In kind it is in vivo. The note with it: Cavia porcellus, iv, 20 μmol/kg. As for the experimental part:
One histamine spasm before administration of the substance was compared with several histamine spasms after administration of the substance. The test substances were administered intravenously (i.v.) and/or intrajejunally (i.j.).

A further experiment concerns tracheal rings. Nature of the experiment: bronchospasmolytic effect on the chain of tracheal rings from guinea pigs in vitro. The note with it: for EC50: Cavia porcellus, negative logarithm of EC50 mol/l, 50% of maximum achievable relaxation, read-out: -lg[EC50 ] (converted); for [EC50 ] theophylline/[EC50 ] substance: ratio of EC50 values, theophylline vs substance. The class given is cell-based. As to the method:
The bronchospasmolytic effect of the compounds on the chain of tracheal rings from guinea pigs was tested in vitro as follows:
Thus, a complete dose-effect plot for the test substance is obtained over a period of 20 to 30 minutes. The particular relaxation is expressed as a percentage fraction of the maximum relaxation achievable by administration of (-)isoprenaline (10^-6 mol/l).

Experiment [4] has as its system PDE IV. The experiment is described as follows: inhibition of PDE IV isolated from human polymorphonuclear neutrophilic cells (PMNs). In kind it is biochemical.
Text: as §1, §2, §3

Where [5] appears, read: after 1 h, read-out: % inhibition after 1 h of the histamine-induced decrease in Vmax.
Where [6] appears, read: average 0-1 h after administration, read-out: % inhibition (0-1 h) of the histamine-induced decrease in Vmax.

Read-outs that look alike come from different tables or passages of the source. A value given as a limit tells only on which side of the number the result lay.

T1 sequence (Q14432 whole entry): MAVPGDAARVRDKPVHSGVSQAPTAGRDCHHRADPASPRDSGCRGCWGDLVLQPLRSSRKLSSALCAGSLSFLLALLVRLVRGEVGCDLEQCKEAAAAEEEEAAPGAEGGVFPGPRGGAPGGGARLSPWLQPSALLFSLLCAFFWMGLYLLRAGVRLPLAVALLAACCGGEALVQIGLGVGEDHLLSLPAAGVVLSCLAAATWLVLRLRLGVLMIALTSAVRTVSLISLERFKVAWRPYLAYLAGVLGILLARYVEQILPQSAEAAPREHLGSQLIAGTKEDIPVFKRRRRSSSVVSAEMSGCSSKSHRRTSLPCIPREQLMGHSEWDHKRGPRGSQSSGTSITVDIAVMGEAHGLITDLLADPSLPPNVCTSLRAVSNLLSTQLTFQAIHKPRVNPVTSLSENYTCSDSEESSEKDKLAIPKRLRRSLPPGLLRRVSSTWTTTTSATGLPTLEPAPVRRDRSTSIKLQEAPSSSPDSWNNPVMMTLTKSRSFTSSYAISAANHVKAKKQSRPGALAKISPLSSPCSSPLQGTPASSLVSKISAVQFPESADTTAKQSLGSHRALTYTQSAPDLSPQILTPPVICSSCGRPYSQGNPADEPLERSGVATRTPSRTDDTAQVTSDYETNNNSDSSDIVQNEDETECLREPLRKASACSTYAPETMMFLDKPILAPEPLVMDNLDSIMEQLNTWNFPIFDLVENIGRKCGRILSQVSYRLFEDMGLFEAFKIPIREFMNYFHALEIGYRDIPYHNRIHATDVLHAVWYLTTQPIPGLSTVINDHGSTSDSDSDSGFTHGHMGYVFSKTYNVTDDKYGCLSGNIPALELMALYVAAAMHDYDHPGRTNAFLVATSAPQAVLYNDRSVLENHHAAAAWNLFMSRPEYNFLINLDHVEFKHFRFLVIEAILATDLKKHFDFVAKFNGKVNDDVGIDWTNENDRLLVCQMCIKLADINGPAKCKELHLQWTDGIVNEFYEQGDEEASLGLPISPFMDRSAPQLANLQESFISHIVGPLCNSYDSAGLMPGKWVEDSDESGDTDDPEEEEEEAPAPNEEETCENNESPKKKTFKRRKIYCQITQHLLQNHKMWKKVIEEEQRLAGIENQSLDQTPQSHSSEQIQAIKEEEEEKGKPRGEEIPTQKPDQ

As to `COc1ccc(-c2ccc(N)nn2)cc1OCC(C)C` [Serial No. 2, 3-amino-6-[4-methoxy-3-(2-methylpropoxy)phenyl]pyridazine], the responders at 30 µmol/kg in experiment [1] (30 μmol/kg) came to 50%. This compound came in with a responders at 100 µmol/kg in experiment [1] of 80%. Further, the concentration for half-maximal inhibition (IC50) (usually the concentration that inhibits the measured activity by half) at PDE III was 209 µM. Besides, in the experiment with PDE IV [2], the “PDE IV dog trachea -lg[IC50 ]” value is reported as under 5.0 and the “[IC50 ] PDE III/[IC50 ] PDE IV dog tr.” value is recorded as under 20.9.
With `COc1ccc(-c2ccc(N)nn2)cc1OC(C)C` [Serial No. 3, 3-amino-6-[4-methoxy-3-(1-methylethoxy)phenyl]pyridazine], the “PDE III hum. platelets -lg[IC50 ]” value on PDE III was found to be 3.66. In addition, in the experiment on PDE IV [2], the “PDE IV dog trachea -lg[IC50 ]” value was found to be 5.30 and the “[IC50 ] PDE III/[IC50 ] PDE IV dog tr.” value is on record as 43.7.
Consider `COc1ccc(-c2ccc(N)nn2)cc1OC1CCCCC1` [Serial No. 7, 3-amino-6-(3-cyclohexyloxy-4-methoxyphenyl)pyridazine], for which the half-inhibitory concentration (IC50) at PDE III is 60.3 µM. Moreover, in the experiment on PDE IV [2], the “PDE IV dog trachea -lg[IC50 ]” value came to 5.17 and the “[IC50 ] PDE III/[IC50 ] PDE IV dog tr.” value was 8.9.
For the compound `COc1ccc(-c2ccc(N)nn2)cc1OC1CCCCCC1` [Serial No. 8, 3-amino-6-(3-cycloheptyloxy-4-methoxyphenyl)pyridazine], the half-maximal inhibitory concentration (IC50) at PDE III is 77.6 µM. In addition, in the experiment on PDE IV [2], the “PDE IV dog trachea -lg[IC50 ]” value amounted to 5.37 and the “[IC50 ] PDE III/[IC50 ] PDE IV dog tr.” value is 18.2.
For the compound `CCOc1ccc(-c2ccc(N)nn2)cc1OCC(C)C` [compound 9], the inhibition in vivo at 20 µmol/kg in experiment [3] (setting [5]) was 20%. For the same compound, the inhibition in vivo at 20 µmol/kg in experiment [3] (setting [6]) is 16%. This compound also yielded a responders at 100 µmol/kg in experiment [1] of 65%. In addition, in the experiment with tracheal rings, the EC50 (in general, the concentration giving half of the maximal effect) was 9.77 µM and the “[EC50 ] theophylline/[EC50 ] substance” value stood at 13.8. Besides, the 50% inhibitory concentration (IC50) on PDE III is 126 µM. Moreover, in the experiment on PDE IV [2], the “PDE IV dog trachea -lg[IC50 ]” value is listed as 5.68 and the “[IC50 ] PDE III/[IC50 ] PDE IV dog tr.” value is reported as 60.2.
Take `CCOc1cc(-c2ccc(N)nn2)ccc1OC(F)F` [compound 10]: the inhibition in vivo at 20 µmol/kg in experiment [3] (setting [5]) was 44%. Further, the inhibition in vivo at 20 µmol/kg in experiment [3] (setting [6]) is 38%. The compound further registered a responders at 100 µmol/kg in experiment [1] of 50%. In the experiment on tracheal rings, the EC50 was 8.32 µM and the “[EC50 ] theophylline/[EC50 ] substance” value was 16.2. Also, the concentration for half-maximal inhibition (IC50) at PDE III is 224 µM. Besides, in the experiment with PDE IV [2], the “PDE IV dog trachea -lg[IC50 ]” value came out at 5.37 and the “[IC50 ] PDE III/[IC50 ] PDE IV dog tr.” value was 52.5.
As to `COc1cc(-c2ccc(N)nn2)ccc1OC(F)F` [compound 11], the inhibition in vivo at 20 µmol/kg in experiment [3] (setting [5]) was 26%. In addition, in experiment [3] (setting [6]), the inhibition in vivo at 20 µmol/kg is 30%. In experiment [1], this compound came in with a responders at 100 µmol/kg of 80%. Also, in the experiment with tracheal rings, the EC50 was 4.9 µM and the “[EC50 ] theophylline/[EC50 ] substance” value came to 27.6. Further, the IC50 at PDE III is 195 µM. For the same compound, in the experiment on PDE IV [2], the “PDE IV dog trachea -lg[IC50 ]” value came out at 5.09 and the “[IC50 ] PDE III/[IC50 ] PDE IV dog tr.” value is given as 22.9.
Consider `CCOc1ccc(-c2ccc(N)nn2)cc1OC(F)F` [compound 12], for which, in experiment [1], the responders at 100 µmol/kg amounted to 50%. In addition, in the experiment on tracheal rings, the half-maximal effective concentration (EC50) is 4.47 µM and the “[EC50 ] theophylline/[EC50 ] substance” value came out at 30.2. In addition, at PDE III, the half-inhibitory concentration (IC50) is 316 µM. In the experiment on PDE IV [2], the “PDE IV dog trachea -lg[IC50 ]” value turned out to be 4.42 and the “[IC50 ] PDE III/[IC50 ] PDE IV dog tr.” value is 9.6.
In the case of `COc1ccc(-c2ccc(N)nn2)cc1OCC1CCC1` [compound 13], the responders at 100 µmol/kg in experiment [1] turned out to be 65%. For the same compound, the half-maximal inhibitory concentration (IC50) on PDE III was 224 µM. For the same compound, in the experiment on PDE IV [2], the “PDE IV dog trachea -lg[IC50 ]” value is given as 4.88 and the “[IC50 ] PDE III/[IC50 ] PDE IV dog tr.” value was found to be 17.0.
As for `Nc1ccc(-c2ccc(OC(F)F)c(OCC3CC3)c2)n[n+]1[O-]` [compound 26], the inhibition in vivo at 20 µmol/kg in experiment [3] (setting [5]) was found to be 12%. Moreover, the inhibition in vivo at 20 µmol/kg in experiment [3] (setting [6]) was found to be 15%. The responders at 10 µmol/kg in experiment [1] (10 μmol/kg) amounted to 70%. For the same compound, in the experiment on tracheal rings, the concentration for a half-maximal effect (EC50) was 1 µM and the “[EC50 ] theophylline/[EC50 ] substance” value worked out at 135. For the same compound, the half-maximal inhibitory concentration (IC50) on PDE III was 18.2 µM. For the same compound, the “PDE IV hum. PMNs -lg[IC50 ]” value with PDE IV [4] (negative logarithm of IC50, cAMP 0.5 μmol/l) amounted to 7.48. For the same compound, the “[IC50 ] PDE III/[IC50 ] PDE IV PMNs” value with PDE IV [4] (selectivity ratio, PDE III hum. platelets vs PDE IV hum. PMNs) is 550.
